Results: patent US6562602B2, “Fermentation and purification of mycolactones” (priority 2000, dated 2003)

Experiment: stability of individual enriched mycolactone isomers in presence and absence of laboratory light, followed by HPLC
Format: physicochemical
Settings: ambient light versus no light; data not shown
Procedure: To monitor stability of the individual enriched isomers, HPLC data was collected on samples stored in the presence and absence of laboratory light. Measurements were made on samples stored in methanol at 23° C. Initial HPLC sampling was carried out on individual isomers shielded to minimize exposure to laboratory light. These same samples were allowed to remain in the autosampler, shielded from light, for 72 hours before additional HPLC data was collected. Following this, the samples were stored on a lab bench exposed to laboratory light for 52 hours, at which time the final HPLC data time point was collected. Under these conditions, samples that were shielded from light remained stable, showing no change in their respective HPLC chromatograms.

Compound | equilibration between double bond isomers
mycolactone A | occur only when the sample was exposed to ambient light
CC(=C\C=C\C(C)=C\C(O)C(O)CC(C)O)/C=C(C)/C=C/C(=O)OC1CCCC(=O)OC(C(C)C/C(C)=C/C(C)C(O)CC(C)O)C/C=C(\C)CC1C (centres unmarked) [mycolactone B] | occur only when the sample was exposed to ambient light
